Laboratory results reported in PMC11823609, “Advancements in the fight against globally distributed OXA-48 carbapenemase: evaluating the new generation of carbapenemase inhibitors” (Antimicrobial Agents and Chemotherapy, 2025).
Values after ≈ are worked out from the molar mass of the structure shown. Where two headings read alike, the source gives them in different places.

Key:
E. coli HB4 ΔompC/F = experiment: microbe, parasite or virus in culture; type: cell-based, Escherichia coli; details: Escherichia coli
From the text: (§1) The E. coli HB4 strain was used to gain a more complete perspective, by evaluating the involvement in resistance of a low permeability background with the carbapenemase OXA-48, as well as coproduction of an ESBL and the carbapenemase; thus, the ESBL CTX-M-14 and OXA-48 were cloned together and separately into E. coli HB4. The characteristics of these strains and transformants are summarized in Table S1, and the cloning procedures are outlined in the supplemental methods.
(§2) The MICs of each of the individual compounds (antibiotics or inhibitors) were also determined. The MICs were determined for the E. coli isogenic expressing OXA-48 (and both OXA-48 and CTX-M-14) to assess their activity against the carbapenemase; MICs were also determined for the 18 Enterobacterales clinical isolates in order to evaluate the new inhibitors against also their resistance concomitant mechanisms. The MICs were determined in triplicate experiments, and the EUCAST 13.0 clinical breakpoints were followed (http://www.eucast.org/clinical_breakpoints).
(§3) For comparative evaluation of the activity of each inhibitor alone against the carbapenemase OXA-48, all inhibitors (at 4 mg/L) were tested in the presence of a carbapenem (ertapenem, adequate substrate) and a cephalosporin (ceftazidime, poor substrate) as reporter substrates. This prevented any possible masking effect produced by the different partner antibiotics. These assays were also performed with isogenic transformants and clinical isolates.

[1] = test system: E. coli HB4 ΔompC/F (OXA-48); experiment: microbe, parasite or virus in culture; type: cell-based, Escherichia coli; details: Escherichia coli
From the text: as §1, §2, §3

[2] = test system: E. coli HB4 ΔompC/F (CTX-M-14 + OXA-48); experiment: microbe, parasite or virus in culture; type: cell-based, Escherichia coli; details: Escherichia coli
From the text: as §1, §2, §3

[3] = test system: E. coli HB4 ΔompC/F (CTX-M-14); experiment: microbe, parasite or virus in culture; type: cell-based, Escherichia coli; details: Escherichia coli
From the text: as §1, §2, §3

E. coli TG1 (OXA-48) = experiment: microbe, parasite or virus in culture; type: cell-based, Escherichia coli; details: Escherichia coli
Procedure: as §2, §3

[4] = test system: K. pneumoniae strain 194 (MLST 392, No ESBL); experiment: microbe, parasite or virus in culture; type: cell-based; details: Klebsiella pneumoniae, K. pneumoniae 194, read-out: MIC
Procedure: (§4) The efficacy of these new BLIs was also evaluated against 18 genetically diverse WGS-characterized collection of OXA-48-positive Enterobacterales recovered as part of the Carbapenem-resistant Enterobacterales Genome Database Project (https://genomes.cnag.cat/incredble) listed in Table S2 ([13]). Combinations of clinical isolates (five pairs of Klebsiella pneumoniae, two pairs of Enterobacter cloacae, and two pairs of E. coli) were chosen for analysis: (i) nine strains carrying ESBLs; and (ii) nine strains (genetically closer available strains) without ESBLs.
as §2, §3

[5] = test system: E. coli strain 264 (MLST 131, No ESBL); experiment: microbe, parasite or virus in culture; type: cell-based; details: Escherichia coli, E. coli 264, read-out: MIC
Procedure: as §4, §2, §3

[6] = test system: K. pneumoniae strain 19 (MLST 11, ESBL); experiment: microbe, parasite or virus in culture; type: cell-based; details: Klebsiella pneumoniae
Procedure: as §4, §2, §3

[7] = test system: E. coli strain 177 (MLST 131, ESBL); experiment: microbe, parasite or virus in culture; type: cell-based; details: Escherichia coli
Procedure: as §4, §2, §3

[8] = test system: E. cloacae strain 231 (MLST 171, No ESBL); experiment: microbe, parasite or virus in culture; type: cell-based; details: Enterobacter cloacae, E. cloacae 231, read-out: MIC
Procedure: as §4, §2, §3

[9] = test system: E. cloacae strain 281 (MLST 78, No ESBL); experiment: microbe, parasite or virus in culture; type: cell-based; details: Enterobacter cloacae, E. cloacae 281, read-out: MIC
Procedure: as §4, §2, §3

[10] = test system: E. coli strain 224 (MLST 127, No ESBL); experiment: microbe, parasite or virus in culture; type: cell-based; details: Escherichia coli, E. coli 224, read-out: MIC
Procedure: as §4, §2, §3

[11] = test system: K. pneumoniae strain 237 (MLST 147, No ESBL); experiment: microbe, parasite or virus in culture; type: cell-based; details: Klebsiella pneumoniae, K. pneumoniae 237, read-out: MIC
Procedure: as §4, §2, §3

[12] = test system: K. pneumoniae strain 413 (MLST 147, ESBL); experiment: microbe, parasite or virus in culture; type: cell-based; details: Klebsiella pneumoniae
Procedure: as §4, §2, §3

[13] = test system: E. coli strain 103 (MLST 10, ESBL); experiment: microbe, parasite or virus in culture; type: cell-based; details: Escherichia coli
Procedure: as §4, §2, §3

[14] = test system: K. pneumoniae strain 238 (MLST 15, ESBL); experiment: microbe, parasite or virus in culture; type: cell-based; details: Klebsiella pneumoniae
Procedure: as §4, §2, §3

[15] = test system: K. pneumoniae strain 170 (MLST 307, No ESBL); experiment: microbe, parasite or virus in culture; type: cell-based; details: Klebsiella pneumoniae, K. pneumoniae 170, read-out: MIC
Procedure: as §4, §2, §3

[16] = test system: E. cloacae strain 272 (MLST 78, ESBL); experiment: microbe, parasite or virus in culture; type: cell-based; details: Enterobacter cloacae
Procedure: as §4, §2, §3

[17] = test system: K. pneumoniae strain 125 (MLST 307, ESBL); experiment: microbe, parasite or virus in culture; type: cell-based; details: Klebsiella pneumoniae
Procedure: as §4, §2, §3

[18] = test system: K. pneumoniae strain 23 (MLST 392, ESBL); experiment: microbe, parasite or virus in culture; type: cell-based; details: Klebsiella pneumoniae
Procedure: as §4, §2, §3

[19] = test system: K. pneumoniae strain 71 (MLST 15, No ESBL); experiment: microbe, parasite or virus in culture; type: cell-based; details: Klebsiella pneumoniae, K. pneumoniae 71, read-out: MIC
Procedure: as §4, §2, §3

[20] = test system: E. cloacae strain 235 (MLST 171, ESBL); experiment: microbe, parasite or virus in culture; type: cell-based; details: Enterobacter cloacae
Procedure: as §4, §2, §3

[21] = test system: K. pneumoniae strain 497 (MLST 11, No ESBL); experiment: microbe, parasite or virus in culture; type: cell-based; details: Klebsiella pneumoniae, K. pneumoniae 497, read-out: MIC
Procedure: as §4, §2, §3

E. coli TG1 = experiment: microbe, parasite or virus in culture; type: cell-based; details: Escherichia coli
Procedure: as §2, §3

[22] = test system: OXA-48-producing Enterobacterales clinical isolates; experiment: MIC summary over clinical isolates; type: cell-based
Procedure: as §4, §2, §3

[23] = ertapenem alone or with BLI at 4 mg/L
[24] = BL alone or BL/BLI: AVI, REL, TAN, DUR 4 mg/L, VAB, XER 8 mg/L, ZID, NAC 1:1

Row | SMILES | MIC (E. coli HB4 ΔompC/F) [µg/mL] | MIC [1] [µg/mL] | MIC [2] [µg/mL] | MIC [3] [µg/mL] | MIC (E. coli TG1 (OXA-48)) [µg/mL] | MIC [6] [µg/mL] | MIC [7] [µg/mL] | MIC [12] [µg/mL] | MIC [13] [µg/mL] | MIC [14] [µg/mL] | MIC [16] [µg/mL] | MIC [17] [µg/mL] | MIC [18] [µg/mL] | MIC [20] [µg/mL] | MIC [4, 24] [µg/mL] | MIC [10, 24] [µg/mL] | MIC [11, 24] [µg/mL] | MIC [15, 24] [µg/mL] | MIC [19, 24] [µg/mL] | MIC [21, 24] [µg/mL] | also measured
1 | C[C@@H](O)[C@H]1C(=O)N2C(C(=O)O)=C(S[C@@H]3CN[C@H](C(=O)Nc4cccc(C(=O)O)c4)C3)[C@H](C)[C@H]12 [ERT, ertapenem] | 0.12 (≈ 0.252 µM) | 32 (≈ 67.3 µM) | 32 (≈ 67.3 µM) | 0.5 (≈ 1.05 µM) | 1 (≈ 2.1 µM) | 4 | 4 | ≥ 256 | 4 | 4 | 16 | 8 | 4 | ≥ 256 |  |  |  |  |  |  | MIC [4, 23]: 4 µg/mL; MIC [5, 23]: 4 µg/mL; MIC [8, 23]: 8 µg/mL; MIC [9, 23]: 4 µg/mL; MIC [10, 23]: 2 µg/mL; MIC [11, 23]: 4 µg/mL; MIC [15, 23]: 4 µg/mL; MIC [19, 23]: 8 µg/mL; MIC [21, 23]: 8 µg/mL; MIC (E. coli TG1; [23]): ≤ 0.06 µg/mL
2 | CO/N=C(\C(=O)N[C@@H]1C(=O)N2C(C(=O)[O-])=C(C[N+]3(C)CCCC3)CS[C@H]12)c1csc(N)n1 [FEP, cefepime] | 1 (≈ 2.08 µM) |  |  |  | ≤ 0.06 |  | ≥ 256 | 128 |  |  |  |  | 32 |  | 0.25 | 0.5 | 0.5 | 0.25 | 0.5 | 0.5 | MIC (E. coli TG1; [24]): ≤ 0.06 µg/mL
3 | C[C@@H](O)[C@H]1C(=O)N2C(C(=O)O)=C(SCCN=CN)C[C@H]12 [IMP, imipenem] | ≤ 0.06 | 16 (≈ 53.4 µM) | 16 (≈ 53.4 µM) | 0.25 (≈ 0.835 µM) | 0.12 (≈ 0.401 µM) | 1 | 2 | 16 | 2 | 2 | 2 | 4 | 4 | ≥ 256 | 2 | 2 | 2 | 4 | 2 | 4 | MIC [5, 24]: 0.5 µg/mL; MIC [8, 24]: 2 µg/mL; MIC [9, 24]: 8 µg/mL; MIC (E. coli TG1; [24]): ≤ 0.06 µg/mL
4 | C[C@@H](O)[C@H]1C(=O)N2C(C(=O)O)=C(S[C@@H]3CN[C@H](C(=O)N(C)C)C3)[C@H](C)[C@H]12 [MER, meropenem] | 0.12 (≈ 0.313 µM) | 32 (≈ 83.4 µM) | 32 (≈ 83.4 µM) | 0.5 (≈ 1.3 µM) | ≤ 0.06 | 1 | 0.5 | 16 | 0.25 | 1 | 1 | 2 | 1 | 128 | 2 | 0.5 | 1 | 1 | 2 | 1 | MIC [5, 24]: 1 µg/mL; MIC [8, 24]: 1 µg/mL; MIC [9, 24]: 1 µg/mL; MIC (E. coli TG1; [24]): ≤ 0.06 µg/mL
5 | O=C(NC1CCNCC1)[C@@H]1CC[C@@H]2CN1C(=O)N2OS(=O)(=O)O [Relebactam, relebactam] | ≥ 128 | ≥ 128 | ≥ 128 | ≥ 128 | 64 (≈ 184 µM) | ≥ 128 | ≥ 128 | ≥ 128 | ≥ 128 | ≥ 128 | ≥ 128 | ≥ 128 | ≥ 128 | ≥ 128 |  |  |  |  |  |  | MIC ([4]; β-lactamase inhibitor alone): ≥ 128 µg/mL; MIC ([5]; β-lactamase inhibitor alone): ≥ 128 µg/mL; MIC ([8]; β-lactamase inhibitor alone): ≥ 128 µg/mL; MIC ([9]; β-lactamase inhibitor alone): ≥ 128 µg/mL; MIC ([10]; β-lactamase inhibitor alone): ≥ 128 µg/mL; MIC ([11]; β-lactamase inhibitor alone): ≥ 128 µg/mL; MIC ([15]; β-lactamase inhibitor alone): ≥ 128 µg/mL; MIC ([19]; β-lactamase inhibitor alone): ≥ 128 µg/mL; MIC ([21]; β-lactamase inhibitor alone): ≥ 128 µg/mL; MIC (E. coli TG1; β-lactamase inhibitor alone): 32 µg/mL (≈ 91.9 µM)
6 | CC1(C)[C@H](C(=O)O)N2C(=O)C[C@H]2S1(=O)=O [SUL, sulbactam] | 32 (≈ 137 µM) | 64 (≈ 274 µM) | 64 (≈ 274 µM) | 32 (≈ 137 µM) | 32 (≈ 137 µM) | 64 | 64 | 128 | 64 | 128 | 128 | 64 | 128 | ≥ 256 | 64 | 128 | 64 | 64 | 128 | 128 | MIC [22]: ≥ 64 µg/mL; MIC [5, 24]: 64 µg/mL; MIC [8, 24]: 64 µg/mL; MIC [9, 24]: 128 µg/mL; MIC (E. coli TG1; [24]): 32 µg/mL (≈ 137 µM)
